Test results reported in ChEMBL document CHEMBL1811761, “Recent advances in drug discovery of benzothiadiazine and related analogs as HCV NS5B polymerase inhibitors” (Bioorg Med Chem, 2011).

Experiments:
Hepatitis C virus = test: Antiviral activity against HCV 1b N infected in human HuH7 cells assessed as inhibition of viral RNA replication after 3 days by RT-PCR analysis; assay type: functional, organism-based, Hepacivirus hominis; details: genotype 1b strain N, Huh-7, 72 h
Huh-7 = test: Cytotoxicity against human HuH7 cells up to […]; assay type: cell-based

EC50 (Hepatitis C virus) [nM]	Structure (SMILES)	Activity (Huh-7)
100	O=c1c(C2=NS(=O)(=O)c3ccccc3N2)c(O)c2ccccc2n1NC1CC1	–
70	NC(=O)COc1ccc2c(c1)S(=O)(=O)N=C(c1c(O)c3ccccc3n(NC3CCC3)c1=O)N2	Non-toxic
100	O=c1c(C2=NS(=O)(=O)c3ccccc3N2)c(O)c2ccccc2n1NC1CCC1	–
